Test results as given in US10912827B2 (priority 2016, dated 2021).
Like-named read-outs stand apart in the source and are kept apart here.

Assays:
[1] = test system: HBV-transgenic mice (Strain HBV1.3.32); conditions: mouse, in vivo
[2] = test system: HBV-transgenic mice (Strain HBV1.3.32); assay type: in vivo, mouse
[3] = test system: HBVtg mice; conditions: mouse, in vivo
[4] = test system: chronic Hepatitis B virus (HBV)-infection; conditions: cited from earlier work
[5] = middle and high antigenemic HBVtg mice, day 34

| Compound | adjuvant efficacy for therapeutic protein prime-MVA boost vaccination [1] | difference in magnitude of HBV-specific CD8+ T cell responses between c-di-AMP and CpG/PCEP regimens [1] | efficacy as adjuvant for therapeutic protein prime-MVA boost vaccination [1] | efficacy in i.m. versus s.c./i.p. application routes [1] | titers of anti-HBc antibodies, c-di-AMP compared to CpG/PCEP regimen ([2]; day 34, p<0.05) | impact on serum HBeAg levels ([2]; high antigenemic HBVtg mice, HBsAg+HBcAg prime twice, MVA-S/core boost day 28, day 34) | HBV replication, detected indirectly by HBeAg levels ([2]; i.m. route) | HBsAg to anti-HBs seroconversion [2, 5] | anti-HBc responses [2, 5] | HBV replication, detected indirectly by HBeAg levels ([2]; s.c./i.p. routes) | liver damage / increase in ALT [3] | patients in whom therapy is curative [4] |
| --- | --- | --- | --- | --- | --- | --- | --- | --- | --- | --- | --- | --- |
| Nc1ncnc2c1ncn2[C@@H]1O[C@@H]2COP(=O)(O)O[C@H]3[C@@H](O)[C@H](n4cnc5c(N)ncnc54)O[C@@H]3COP(=O)(O)O[C@H]2[C@H]1O [c-di-AMP, bis-(3′,5′)-cyclic dimeric adenosine monophosphate] | potent adjuvant | no statistically significant difference | very potent adjuvant | equally effective | significantly higher titers | Neither c-di-AMP nor CpG/PCEP immunization protocol had an impact | lower HBV replication | HBsAg to anti-HBs seroconversion in all examined HBVtg mice | significant anti-HBc responses | lower HBV replication | mild T-cell-induced liver damage | – |
| Interferon α | – | – | – | – | – | – | – | – | – | – | – | 15-20% |
